Assay results from patent US20020048549A1, “Radioactive transition metal nitride heterocomplex” (priority 1996, published 2002).
Where two headings read alike, the source gives them in different places.

Test: Biodistribution of 99mTc(N)(X)(DTC)+ heterocomplexes in rats
Assay type: in vivo, male Spraque-Dawley rats (SD rats)
Method: The biodistribution of a ^99mTc nitride heterocomplex represented by the general formula ^99mTc(N)(X)(Y) was investigated as follows: ^99mTc nitride heterocomplexes were synthesized using DTC as a bidentate ligand Y and each of the diphosphine compounds X described below, and the biodistribution in rats of each heterocomplex was investigated.
Before being injected into rats, the contents of the vial were diluted with phosphate buffer (0.1 mol/dm^3, pH=7.06) containing 10% Tween 80 ([…]). The complexes were stable in the solutions and in human plasma for at least 6 hours.
The biodistribution was measured using male Spraque-Dawley rats (SD rats) weighing 200 to 250 g. After 24 hours fasting, the rats were put under intraperitoneal anesthesia and given an injection in the jugular vein. Then, the organs were excised from the rats at different intervals of time, washed and then weighed. In addition, blood samples were collected and then weighed. The data on the biodistribution are expressed as the mean±significant difference of the percentage of radioactivity level per gram of the organ weight based on the dose of radioactivity, (% dose/g). The measurement was carried out using groups of 5 rats each.

SMILES: CCCN1CC[P+](c2ccccc2)(c2ccccc2)[99Tc-2]2(#[N])([NH]N(C)C(SC)=[S+]2)[P+](c2ccccc2)(c2ccccc2)CC1 [^99mTc(N)(PNP1)(DTC)^+]
- Bone % dose/g: 0.244 ± 0.01 % dose/g
- Heart % dose/g: 1.236 ± 0.08 % dose/g
- Liver % dose/g: 3.593 ± 0.42 % dose/g
- Spleen % dose/g: 1.948 ± 0.20 % dose/g
- Blood % dose/g (0 min after injection): 2.125 ± 0.3 % dose/g
- Brain % dose/g (0 min after injection): 0.143 ± 0.02 % dose/g
- Intestine % dose/g (0 min after injection): 0.418 ± 0.03 % dose/g
- Kidney % dose/g (0 min after injection): 2.66 ± 0.05 % dose/g
- Lung % dose/g (0 min after injection): 5.815 ± 0.04 % dose/g
- Muscle % dose/g (0 min after injection): 0.098 ± 0.00 % dose/g
- Stomach % dose/g (0 min after injection): 0.337 ± 0.00 % dose/g
- Blood % dose/g (2 min after injection): 1.062 ± 0.13 % dose/g
- Bone % dose/g (2 min after injection): 0.234 ± 0.06 % dose/g
- Brain % dose/g (2 min after injection): 0.086 ± 0.00 % dose/g
- Heart % dose/g (2 min after injection): 0.824 ± 0.01 % dose/g
- Intestine % dose/g (2 min after injection): 0.471 ± 0.00 % dose/g
- Kidney % dose/g (2 min after injection): 4.145 ± 0.64 % dose/g
- Liver % dose/g (2 min after injection): 5.555 ± 0.83 % dose/g
- Lung % dose/g (2 min after injection): 4.653 ± 0.65 % dose/g
- Muscle % dose/g (2 min after injection): 0.085 ± 0.01 % dose/g
- Spleen % dose/g (2 min after injection): 4.459 ± 0.09 % dose/g
- Stomach % dose/g (2 min after injection): 0.379 ± 0.02 % dose/g
- Blood % dose/g (10 min after injection): 0.495 ± 0.01 % dose/g
- Bone % dose/g (10 min after injection): 0.3 ± 0.05 % dose/g
- Brain % dose/g (10 min after injection): 0.041 ± 0.00 % dose/g
- Heart % dose/g (10 min after injection): 0.795 ± 0.06 % dose/g
- Intestine % dose/g (10 min after injection): 0.704 ± 0.08 % dose/g
- Kidney % dose/g (10 min after injection): 4.251 ± 0.02 % dose/g
- Liver % dose/g (10 min after injection): 5.795 ± 0.03 % dose/g
- Lung % dose/g (10 min after injection): 3.191 ± 0.60 % dose/g
- Muscle % dose/g (10 min after injection): 0.121 ± 0.02 % dose/g
- Spleen % dose/g (10 min after injection): 7.237 ± 0.88 % dose/g
- Stomach % dose/g (10 min after injection): 0.438 ± 0.03 % dose/g
- Blood % dose/g (30 min after injection): 0.285 ± 0.01 % dose/g
- Bone % dose/g (30 min after injection): 0.324 ± 0.05 % dose/g
- Brain % dose/g (30 min after injection): 0.027 ± 0.00 % dose/g
- Heart % dose/g (30 min after injection): 0.513 ± 0.07 % dose/g
- Intestine % dose/g (30 min after injection): 1.107 ± 0.31 % dose/g
- Kidney % dose/g (30 min after injection): 4.095 ± 0.73 % dose/g
- Liver % dose/g (30 min after injection): 5.976 ± 0.49 % dose/g
- Lung % dose/g (30 min after injection): 2.089 ± 0.16 % dose/g
- Muscle % dose/g (30 min after injection): 0.106 ± 0.00 % dose/g
- Spleen % dose/g (30 min after injection): 5.884 ± 2.7 % dose/g
- Stomach % dose/g (30 min after injection): 0.444 ± 0.09 % dose/g
- Blood % dose/g (1 hr after injection): 0.311 ± 0.03 % dose/g
- Bone % dose/g (1 hr after injection): 0.398 ± 0.12 % dose/g
- Brain % dose/g (1 hr after injection): 0.019 ± 0.00 % dose/g
- Heart % dose/g (1 hr after injection): 0.55 ± 0.04 % dose/g
- Intestine % dose/g (1 hr after injection): 0.896 ± 0.04 % dose/g
- Kidney % dose/g (1 hr after injection): 4.779 ± 0.21 % dose/g
- Liver % dose/g (1 hr after injection): 5.116 ± 0.00 % dose/g
- Lung % dose/g (1 hr after injection): 1.586 ± 0.16 % dose/g
- Muscle % dose/g (1 hr after injection): 0.302 ± 0.39 % dose/g
- Spleen % dose/g (1 hr after injection): 6.711 ± 1.27 % dose/g
- Stomach % dose/g (1 hr after injection): 0.625 ± 0.34 % dose/g
- Blood % dose/g (2 hr after injection): 0.22 ± 0.05 % dose/g
- Bone % dose/g (2 hr after injection): 0.347 ± 0.01 % dose/g
- Brain % dose/g (2 hr after injection): 0.025 ± 0.00 % dose/g
- Heart % dose/g (2 hr after injection): 0.603 ± 0.05 % dose/g
- Intestine % dose/g (2 hr after injection): 0.977 ± 0.42 % dose/g
- Kidney % dose/g (2 hr after injection): 5.327 ± 0.52 % dose/g
- Liver % dose/g (2 hr after injection): 3.524 ± 0.53 % dose/g
- Lung % dose/g (2 hr after injection): 1.716 ± 0.23 % dose/g
- Muscle % dose/g (2 hr after injection): 0.111 ± 0.01 % dose/g
- Spleen % dose/g (2 hr after injection): 4.747 ± 1.78 % dose/g
- Stomach % dose/g (2 hr after injection): 0.776 ± 0.07 % dose/g
- Blood % dose/g (4 hr after injection): 0.137 ± 0.02 % dose/g
- Bone % dose/g (4 hr after injection): 0.264 ± 0.10 % dose/g
- Brain % dose/g (4 hr after injection): 0.021 ± 0.00 % dose/g
- Heart % dose/g (4 hr after injection): 0.382 ± 0.04 % dose/g
- Intestine % dose/g (4 hr after injection): 0.906 ± 0.24 % dose/g
- Kidney % dose/g (4 hr after injection): 4.282 ± 0.67 % dose/g
- Liver % dose/g (4 hr after injection): 2.604 ± 0.25 % dose/g
- Lung % dose/g (4 hr after injection): 1.08 ± 0.16 % dose/g
- Muscle % dose/g (4 hr after injection): 0.077 ± 0.01 % dose/g
- Spleen % dose/g (4 hr after injection): 6.294 ± 1.29 % dose/g
- Stomach % dose/g (4 hr after injection): 0.719 ± 0.18 % dose/g

SMILES: COCCN1CC[P+](c2ccccc2)(c2ccccc2)[99Tc-2]2(#[N])([NH]N(C)C(SC)=[S+]2)[P+](c2ccccc2)(c2ccccc2)CC1 [^99mTc(N)(PNP2)(DTC)^+]
- Bone % dose/g: 0.209 ± 0.01 % dose/g
- Heart % dose/g: 1.399 ± 0.08 % dose/g
- Liver % dose/g: 3.385 ± 0.81 % dose/g
- Spleen % dose/g: 2.739 ± 0.07 % dose/g
- Blood % dose/g (0 min after injection): 3.220 ± 0.45 % dose/g
- Brain % dose/g (0 min after injection): 0.120 ± 0.00 % dose/g
- Intestine % dose/g (0 min after injection): 0.906 ± 0.03 % dose/g
- Kidney % dose/g (0 min after injection): 5.702 ± 0.732 % dose/g
- Lung % dose/g (0 min after injection): 3.568 ± 0.94 % dose/g
- Muscle % dose/g (0 min after injection): 0.134 ± 0.01 % dose/g
- Stomach % dose/g (0 min after injection): 0.752 ± 0.09 % dose/g
- Blood % dose/g (2 min after injection): 1.025 ± 0.02 % dose/g
- Bone % dose/g (2 min after injection): 0.265 ± 0.04 % dose/g
- Brain % dose/g (2 min after injection): 0.065 ± 0.01 % dose/g
- Heart % dose/g (2 min after injection): 0.728 ± 0.04 % dose/g
- Intestine % dose/g (2 min after injection): 1.694 ± 0.18 % dose/g
- Kidney % dose/g (2 min after injection): 4.941 ± 0.60 % dose/g
- Liver % dose/g (2 min after injection): 7.723 ± 0.20 % dose/g
- Lung % dose/g (2 min after injection): 2.040 ± 0.234 % dose/g
- Muscle % dose/g (2 min after injection): 0.077 ± 0.00 % dose/g
- Spleen % dose/g (2 min after injection): 5.018 ± 0.02 % dose/g
- Stomach % dose/g (2 min after injection): 0.0603 ± 0.03 % dose/g
- Blood % dose/g (10 min after injection): 0.355 ± 0.03 % dose/g
- Bone % dose/g (10 min after injection): 0.268 ± 0.10 % dose/g
- Brain % dose/g (10 min after injection): 0.040 ± 0.00 % dose/g
- Heart % dose/g (10 min after injection): 0.736 ± 0.12 % dose/g
- Intestine % dose/g (10 min after injection): 2.861 ± 0.74 % dose/g
- Kidney % dose/g (10 min after injection): 6.910 ± 0.081 % dose/g
- Liver % dose/g (10 min after injection): 4.686 ± 0.89 % dose/g
- Lung % dose/g (10 min after injection): 1.481 ± 0.10 % dose/g
- Muscle % dose/g (10 min after injection): 0.064 ± 0.02 % dose/g
- Spleen % dose/g (10 min after injection): 5.334 ± 0.10 % dose/g
- Stomach % dose/g (10 min after injection): 0.517 ± 0.16 % dose/g
- Blood % dose/g (30 min after injection): 0.333 ± 0.03 % dose/g
- Bone % dose/g (30 min after injection): 0.301 ± 0.03 % dose/g
- Brain % dose/g (30 min after injection): 0.020 ± 0.00 % dose/g
- Heart % dose/g (30 min after injection): 0.652 ± 0.19 % dose/g
- Intestine % dose/g (30 min after injection): 7.254 ± 0.46 % dose/g
- Kidney % dose/g (30 min after injection): 7.542 ± 1.410 % dose/g
- Liver % dose/g (30 min after injection): 7.341 ± 0.38 % dose/g
- Lung % dose/g (30 min after injection): 1.015 ± 0.16 % dose/g
- Muscle % dose/g (30 min after injection): 0.103 ± 0.02 % dose/g
- Spleen % dose/g (30 min after injection): 5.131 ± 0.59 % dose/g
- Stomach % dose/g (30 min after injection): 1.135 ± 0.298 % dose/g
- Blood % dose/g (1 hr after injection): 0.19 ± 0.01 % dose/g
- Bone % dose/g (1 hr after injection): 0.294 ± 0.02 % dose/g
- Brain % dose/g (1 hr after injection): 0.025 ± 0.00 % dose/g
- Heart % dose/g (1 hr after injection): 0.534 ± 0.02 % dose/g
- Intestine % dose/g (1 hr after injection): 7.644 ± 1.01 % dose/g
- Kidney % dose/g (1 hr after injection): 6.713 ± 0.83 % dose/g
- Liver % dose/g (1 hr after injection): 7.436 ± 1.44 % dose/g
- Lung % dose/g (1 hr after injection): 1.011 ± 0.01 % dose/g
- Muscle % dose/g (1 hr after injection): 0.075 ± 0.01 % dose/g
- Spleen % dose/g (1 hr after injection): 5.073 ± 0.01 % dose/g
- Stomach % dose/g (1 hr after injection): 0.932 ± 0.12 % dose/g
- Blood % dose/g (2 hr after injection): 0.129 ± 0.02 % dose/g
- Bone % dose/g (2 hr after injection): 0.357 ± 0.08 % dose/g
- Brain % dose/g (2 hr after injection): 0.025 ± 0.00 % dose/g
- Heart % dose/g (2 hr after injection): 0.511 ± 0.05 % dose/g
- Intestine % dose/g (2 hr after injection): 6.442 ± 0.59 % dose/g
- Kidney % dose/g (2 hr after injection): 6.799 ± 1.348 % dose/g
- Liver % dose/g (2 hr after injection): 4.061 ± 0.64 % dose/g
- Lung % dose/g (2 hr after injection): 0.962 ± 0.02 % dose/g
- Muscle % dose/g (2 hr after injection): 0.102 ± 0.02 % dose/g
- Spleen % dose/g (2 hr after injection): 5.507 ± 0.84 % dose/g
- Stomach % dose/g (2 hr after injection): 1.701 ± 0.34 % dose/g
- Blood % dose/g (4 hr after injection): 0.087 ± 0.00 % dose/g
- Bone % dose/g (4 hr after injection): 0.329 ± 0.01 % dose/g
- Brain % dose/g (4 hr after injection): 0.018 ± 0.00 % dose/g
- Heart % dose/g (4 hr after injection): 0.506 ± 0.04 % dose/g
- Intestine % dose/g (4 hr after injection): 4.054 ± 0.39 % dose/g
- Kidney % dose/g (4 hr after injection): 7.471 ± 0.03 % dose/g
- Liver % dose/g (4 hr after injection): 1.784 ± 0.25 % dose/g
- Lung % dose/g (4 hr after injection): 0.670 ± 0.09 % dose/g
- Muscle % dose/g (4 hr after injection): 0.08 ± 0.00 % dose/g
- Spleen % dose/g (4 hr after injection): 5.055 ± 0.02 % dose/g
- Stomach % dose/g (4 hr after injection): 1.220 ± 0.150 % dose/g
